Values of other authors, collected in US20070243563A1, “Aflatoxin-albumin adduct measurement and the uses thereof” (priority 2000, published 2007).

Key:
rats = conditions: rat, in vivo

## Aflatoxin B1 [AFB1]
rats
  TD50: 9.3×10^−4 mg/kg per day
  carcinogenic potency relative to benzo(a)pyrene: 1000 times
humans
  IARC carcinogen classification: Group 1 carcinogens
